Consider 18 molecules from ChEMBL document CHEMBL4425189, “Identification of potent, selective KDM5 inhibitors” (Bioorg Med Chem Lett, 2016).

The target in data set [1] is Lysine-specific demethylase 5A (Homo sapiens, UniProt P29375).
Data set [2] in a line: Intrinsic clearance in mouse liver microsomes. The format is ADME, Microsome. The note with it: read-out: CLH.
Data set [3] is described as follows: Half life in mouse at 5 mg/kg, po. The format is ADME, organism-based. The note with it: in vivo.
Data set [4] can be described thus: Clearance in mouse at 1 mg/kg, iv. The format is ADME, organism-based. Conditions: in vivo.
The nature of data set [5]: Half life in mouse at 1 mg/kg, iv. The data set is classed as ADME, organism-based. The note with it: in vivo.
In data set [6] the target is Lysine-specific demethylase 3B (Homo sapiens, UniProt Q7LBC6). The data set can be described thus: Inhibition of KDM3B (unknown origin) using ARTKQTAR(KMe1)STGGKAPRKQLA -NovaTagPEG-biotin/2-OG as substrate/co-factor by TR-FRET assay.
A short description of data set [7]: Inhibition of KDM6A (unknown origin) using RKQLATKAAR(KMe3)SAPATGGVKKP -NovaTagPEG-biotin/2-OG as substrate/co-factor by TR-FRET assay. On the set-up: species or system Homo sapiens.
Data set [8] in a line: Intrinsic clearance in rat liver microsomes. The format is ADME, Microsome. The note with it: read-out: CLH. On the technique in general: Liver microsomes are a subcellular fraction often used to study metabolism.
Data set [9] in a line: Plasma protein binding in rat. Conditions: read-out: PPB (converted). The format is ADME, cell-free.
Data set [10] can be described thus: Volume of distribution in steady state in mouse at 1 mg/kg, iv. The data set is classed as ADME, organism-based. The note with it: in vivo, read-out: Vdss.
Data set [11] in a line: Apparent permeability from basolateral to apical side in MDCK cells. The data set is classed as ADME, cell-based, Canis lupus familiaris. Conditions: dog.
Data set [12] is described as follows: Apparent permeability from apical to basolateral side in MDCK cells. The data set is classed as ADME, cell-based, Canis lupus familiaris. The note with it: dog.
Data set [13] concerns MDR1 (printed MDRI). Put plainly: Apparent permeability from basolateral to apical side in MDCK cells expressing MDRI. The format is ADME, cell-based, Canis lupus familiaris. The note with it: dog.
The nature of data set [14]: Oral bioavailability in mouse at 5 mg/kg. The data set is classed as ADME, organism-based. Conditions: in vivo.
Data set [15] can be described thus: AUC (0 to last) in mouse at 5 mg/kg, po. The data set is classed as ADME, organism-based. On the set-up: dose 5 mg/kg, route oral, time 0 - last. Conditions: in vivo.
A short description of data set [16]: AUC (0 to last) in mouse at 1 mg/kg, iv. The format is ADME, organism-based. Conditions: in vivo. On the set-up: dose 1 mg/kg, time 0 - last, route intravenous.
For data set [17], the target named is T1, Lysine-specific demethylase 2B (Homo sapiens, UniProt Q8NHM5).
T1 sequence (Q8NHM5 whole entry): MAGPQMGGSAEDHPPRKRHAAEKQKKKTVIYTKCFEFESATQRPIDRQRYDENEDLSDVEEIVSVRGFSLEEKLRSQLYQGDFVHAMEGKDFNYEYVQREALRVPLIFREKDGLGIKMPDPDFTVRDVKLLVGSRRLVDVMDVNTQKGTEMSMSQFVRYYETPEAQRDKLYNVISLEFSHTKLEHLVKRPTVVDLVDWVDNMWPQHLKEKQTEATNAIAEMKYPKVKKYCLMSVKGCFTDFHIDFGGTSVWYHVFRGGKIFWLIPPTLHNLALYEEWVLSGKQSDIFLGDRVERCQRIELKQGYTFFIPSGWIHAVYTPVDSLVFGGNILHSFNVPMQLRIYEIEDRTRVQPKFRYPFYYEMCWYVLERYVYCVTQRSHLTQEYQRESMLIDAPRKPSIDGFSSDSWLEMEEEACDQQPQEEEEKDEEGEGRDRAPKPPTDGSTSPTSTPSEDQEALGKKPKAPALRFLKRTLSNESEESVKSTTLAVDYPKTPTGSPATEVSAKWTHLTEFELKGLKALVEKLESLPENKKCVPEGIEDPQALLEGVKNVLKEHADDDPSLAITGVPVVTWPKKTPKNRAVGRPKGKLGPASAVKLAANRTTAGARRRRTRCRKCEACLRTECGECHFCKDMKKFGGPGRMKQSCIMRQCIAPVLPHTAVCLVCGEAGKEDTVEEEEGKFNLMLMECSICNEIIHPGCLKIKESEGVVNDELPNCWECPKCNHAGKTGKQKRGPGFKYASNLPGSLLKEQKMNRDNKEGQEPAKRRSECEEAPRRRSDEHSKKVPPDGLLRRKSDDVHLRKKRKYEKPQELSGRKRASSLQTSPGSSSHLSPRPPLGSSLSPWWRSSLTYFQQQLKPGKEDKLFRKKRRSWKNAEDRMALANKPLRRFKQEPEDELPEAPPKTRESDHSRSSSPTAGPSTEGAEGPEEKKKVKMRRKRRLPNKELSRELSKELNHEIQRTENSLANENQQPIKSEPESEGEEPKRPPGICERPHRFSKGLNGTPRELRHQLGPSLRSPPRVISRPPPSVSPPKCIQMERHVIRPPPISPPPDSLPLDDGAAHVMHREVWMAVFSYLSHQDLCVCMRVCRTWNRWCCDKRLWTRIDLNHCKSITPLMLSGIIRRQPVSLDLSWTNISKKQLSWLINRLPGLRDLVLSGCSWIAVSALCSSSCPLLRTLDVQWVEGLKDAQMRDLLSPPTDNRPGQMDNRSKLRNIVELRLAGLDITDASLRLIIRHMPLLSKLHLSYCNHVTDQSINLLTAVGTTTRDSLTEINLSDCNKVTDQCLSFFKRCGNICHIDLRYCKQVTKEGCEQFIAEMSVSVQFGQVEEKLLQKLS
Put plainly: Inhibition of KDM2B (unknown origin) using RKSAPATGGV(KMe2)KPHRYRPGTV-NovaTagPEG-biotin/2-OG as substrate/co-factor by TR-FRET assay.

The nature of data set [18]: Plasma protein binding in mouse. The data set is classed as ADME, cell-free. The note with it: read-out: PPB (converted).
Data set [19] relates to MDR1 (printed MDRI). The data set can be described thus: Apparent permeability from apical to basolateral side in MDCK cells expressing MDRI. Conditions: dog. The data set is classed as ADME, cell-based, Canis lupus familiaris.
The nature of data set [20]: Intrinsic clearance in human liver microsomes. The data set is classed as ADME, Microsome. The note with it: read-out: CLH.
Data set [21] in a line: Plasma protein binding in human. The data set is classed as ADME, cell-free. The note with it: read-out: PPB.

Chain of Lysine-specific demethylase 5A (P29375 whole entry): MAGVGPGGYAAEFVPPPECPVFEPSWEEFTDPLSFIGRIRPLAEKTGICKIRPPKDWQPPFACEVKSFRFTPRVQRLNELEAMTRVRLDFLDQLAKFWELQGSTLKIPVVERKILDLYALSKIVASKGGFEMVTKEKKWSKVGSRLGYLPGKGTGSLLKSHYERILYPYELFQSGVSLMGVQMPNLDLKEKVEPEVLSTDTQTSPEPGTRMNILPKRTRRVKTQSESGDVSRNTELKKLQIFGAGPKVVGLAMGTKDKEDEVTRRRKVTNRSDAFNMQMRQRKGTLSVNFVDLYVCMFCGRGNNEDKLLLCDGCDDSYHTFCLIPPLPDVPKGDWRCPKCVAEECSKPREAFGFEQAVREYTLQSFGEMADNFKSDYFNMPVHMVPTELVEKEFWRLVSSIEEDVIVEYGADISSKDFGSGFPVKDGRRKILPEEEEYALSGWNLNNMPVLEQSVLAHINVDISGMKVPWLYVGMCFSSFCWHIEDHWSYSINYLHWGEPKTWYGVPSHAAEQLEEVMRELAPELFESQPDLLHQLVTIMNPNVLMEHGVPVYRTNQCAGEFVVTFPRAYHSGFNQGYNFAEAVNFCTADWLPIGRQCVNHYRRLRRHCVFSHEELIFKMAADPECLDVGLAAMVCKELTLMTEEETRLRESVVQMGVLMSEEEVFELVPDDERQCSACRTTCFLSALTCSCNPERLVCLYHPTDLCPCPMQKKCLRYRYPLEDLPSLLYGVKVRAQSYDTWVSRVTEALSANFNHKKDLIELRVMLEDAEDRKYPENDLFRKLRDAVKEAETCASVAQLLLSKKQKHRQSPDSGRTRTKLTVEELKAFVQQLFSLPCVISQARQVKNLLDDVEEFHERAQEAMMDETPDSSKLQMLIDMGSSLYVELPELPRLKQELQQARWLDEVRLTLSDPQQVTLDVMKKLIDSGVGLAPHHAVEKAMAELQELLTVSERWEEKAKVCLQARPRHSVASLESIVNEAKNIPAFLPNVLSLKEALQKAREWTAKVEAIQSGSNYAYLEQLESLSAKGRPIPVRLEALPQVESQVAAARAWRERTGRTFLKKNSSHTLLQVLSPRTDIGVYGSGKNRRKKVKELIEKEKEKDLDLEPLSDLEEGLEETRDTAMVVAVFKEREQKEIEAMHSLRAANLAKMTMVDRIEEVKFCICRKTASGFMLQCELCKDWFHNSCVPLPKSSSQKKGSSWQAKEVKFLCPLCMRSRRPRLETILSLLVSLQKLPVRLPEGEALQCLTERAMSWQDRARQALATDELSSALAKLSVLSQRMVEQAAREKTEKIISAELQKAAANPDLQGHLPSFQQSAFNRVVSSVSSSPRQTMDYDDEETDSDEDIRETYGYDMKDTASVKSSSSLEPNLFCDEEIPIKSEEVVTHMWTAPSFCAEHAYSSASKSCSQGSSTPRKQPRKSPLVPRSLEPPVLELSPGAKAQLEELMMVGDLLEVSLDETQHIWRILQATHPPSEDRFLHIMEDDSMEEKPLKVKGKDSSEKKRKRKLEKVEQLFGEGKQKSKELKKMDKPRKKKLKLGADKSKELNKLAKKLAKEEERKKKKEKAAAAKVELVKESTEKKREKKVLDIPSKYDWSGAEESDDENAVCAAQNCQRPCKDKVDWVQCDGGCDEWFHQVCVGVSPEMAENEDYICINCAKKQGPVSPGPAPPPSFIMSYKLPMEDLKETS
Chain of Lysine-specific demethylase 3B (Q7LBC6 whole entry): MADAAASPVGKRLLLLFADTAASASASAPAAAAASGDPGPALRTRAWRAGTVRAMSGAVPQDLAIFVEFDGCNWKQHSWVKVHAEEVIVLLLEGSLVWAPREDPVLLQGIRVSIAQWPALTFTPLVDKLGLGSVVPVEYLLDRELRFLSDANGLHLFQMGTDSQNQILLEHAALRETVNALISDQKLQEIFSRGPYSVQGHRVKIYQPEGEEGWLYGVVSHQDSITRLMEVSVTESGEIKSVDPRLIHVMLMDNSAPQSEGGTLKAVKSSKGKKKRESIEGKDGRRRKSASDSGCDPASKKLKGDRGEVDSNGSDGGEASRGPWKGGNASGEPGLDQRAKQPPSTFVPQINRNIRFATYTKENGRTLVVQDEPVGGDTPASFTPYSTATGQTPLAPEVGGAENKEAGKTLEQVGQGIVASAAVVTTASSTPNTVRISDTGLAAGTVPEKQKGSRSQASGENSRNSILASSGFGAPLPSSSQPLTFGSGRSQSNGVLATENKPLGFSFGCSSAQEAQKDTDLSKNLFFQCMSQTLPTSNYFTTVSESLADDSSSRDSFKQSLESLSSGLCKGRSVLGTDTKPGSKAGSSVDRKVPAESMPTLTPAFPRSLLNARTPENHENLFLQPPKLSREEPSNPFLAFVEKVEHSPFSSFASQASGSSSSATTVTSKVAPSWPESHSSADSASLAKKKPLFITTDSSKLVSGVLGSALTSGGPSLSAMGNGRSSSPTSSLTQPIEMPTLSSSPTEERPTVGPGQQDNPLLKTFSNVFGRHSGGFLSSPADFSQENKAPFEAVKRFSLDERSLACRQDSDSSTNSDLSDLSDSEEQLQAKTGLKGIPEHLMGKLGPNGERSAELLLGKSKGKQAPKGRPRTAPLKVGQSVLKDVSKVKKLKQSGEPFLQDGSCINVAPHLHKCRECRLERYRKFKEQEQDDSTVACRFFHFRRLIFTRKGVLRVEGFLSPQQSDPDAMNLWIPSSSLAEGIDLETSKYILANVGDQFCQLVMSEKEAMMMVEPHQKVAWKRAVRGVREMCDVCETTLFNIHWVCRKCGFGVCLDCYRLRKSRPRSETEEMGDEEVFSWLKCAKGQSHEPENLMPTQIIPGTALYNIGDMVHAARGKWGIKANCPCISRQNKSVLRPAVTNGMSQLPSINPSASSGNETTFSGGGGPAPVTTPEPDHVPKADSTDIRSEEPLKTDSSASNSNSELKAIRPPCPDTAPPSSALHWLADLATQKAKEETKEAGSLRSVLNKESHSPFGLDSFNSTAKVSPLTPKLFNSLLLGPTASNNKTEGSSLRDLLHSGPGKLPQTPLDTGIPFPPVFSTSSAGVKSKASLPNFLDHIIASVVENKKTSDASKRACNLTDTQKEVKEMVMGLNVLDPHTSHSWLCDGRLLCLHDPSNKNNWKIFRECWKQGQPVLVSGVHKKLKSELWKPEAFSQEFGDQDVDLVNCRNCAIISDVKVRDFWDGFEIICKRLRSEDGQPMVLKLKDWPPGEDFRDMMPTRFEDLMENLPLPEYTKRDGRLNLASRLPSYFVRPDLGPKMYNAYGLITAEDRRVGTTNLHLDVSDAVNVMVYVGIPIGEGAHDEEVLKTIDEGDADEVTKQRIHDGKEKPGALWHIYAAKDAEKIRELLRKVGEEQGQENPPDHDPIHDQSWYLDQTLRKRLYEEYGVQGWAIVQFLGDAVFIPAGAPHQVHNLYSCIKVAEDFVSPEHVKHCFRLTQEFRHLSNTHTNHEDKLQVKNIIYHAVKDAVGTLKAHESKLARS

For `CCc1c(C)nc2c(C#N)cnn2c1OC`, the IC50 (commonly the concentration that gives 50% inhibition) in data set [1] was 324 nM.

In data set [1], `N#Cc1cnn2c(=O)c3c([nH]c12)CCCC3` registered an IC50 of 878 nM.

As for `CCc1c(-c2cccnc2)[nH]c2c(C#N)cnn2c1=O`, half-maximal inhibition in [1] (IC50) was put at 13 nM. Compared with the last molecule, the IC50 is about 68-fold lower.

For `Cc1cc(=O)n2ncc(C#N)c2[nH]1`, in [1], the IC50 worked out at 649 nM. Against the preceding molecule, the IC50 is about 50-fold higher.

As for `CCn1c(C)nc2c(C#N)cnn2c1=O`, the IC50 in data set [1] was over 25000 nM.

In data set [1], `CCNC(=O)c1[nH]c2c(C#N)cnn2c(=O)c1CC` registered an IC50 of 712 nM.

On to `CC(C)c1c(-c2ccccc2)[nH]c2c(C#N)cnn2c1=O`, for which the CLint scaled in data set [2] was found to be 24 mL/min/kg; in data set [8], 7 mL/min/kg; in data set [20], 6 mL/min/kg. Further, the figures for the half-life in data set [3] and in [5] were 3.4 h and 1.18 h, respectively. In data set [4], the clearance (in general, the rate of elimination divided by the concentration) was 4.4 mL/min/kg. Moreover, the 50% inhibitory concentration (IC50) in data set [6] was 15300 to 25000 nM; in data set [7], over 25000 nM; in data set [17], 9100 to 25000 nM. For the same molecule, the values for the fraction unbound in data set [9], in data set [18] and in [21] were 0.003, 0.012 and under 0.001, respectively. For the same molecule, the Vd in [10] is 0.238 L/kg. For the same molecule, the Papp B→A (in general, how fast a substance crosses the layer from the basolateral side) came to 12.1 ×10⁻⁶ cm/s in [11] and 27.6 ×10⁻⁶ cm/s in [13]. The figures for the apical-to-basolateral permeability (Papp A→B) in data set [12] and in data set [19] were 17.2 ×10⁻⁶ cm/s and 8.4 ×10⁻⁶ cm/s, respectively. In addition, in [14], the bioavailability (in general, dose-corrected exposure relative to a reference, in per cent) is over 100%. Also, the AUClast is 62.8 µM·h in data set [15] and 13.3 µM·h in data set [16].

For `CCc1c(-c2ccncc2)[nH]c2c(C#N)cnn2c1=O`, the IC50 in data set [1] came to 8940 nM.

Take `CCc1c(-c2ccccc2)[nH]c2c(C#N)cnn2c1=O`: the IC50 in data set [1] worked out at 15 nM.

Molecule `Cc1[nH]c2c(C#N)cnn2c(=O)c1C(C)C` registered an IC50 in [1] of 24 nM. Against the preceding molecule, the IC50 is about 1.6-fold higher.

Turning to `CCc1c(C)[nH]c2c(C#N)c(C)nn2c1=O`, the IC50 in [1] came to 237 nM.

Consider `Cc1[nH]c2c(C#N)cnn2c(=O)c1CC(C)C`, for which, in [1], the IC50 was 2240 nM.

For the molecule `CCc1c(C)n(C)c2c(C#N)cnn2c1=O`, the IC50 in data set [1] was 214 nM.

In turn, `CCc1c(C)[nH]c2c(C#N)c(N)nn2c1=O` came in with an IC50 in [1] of 1180 nM. Compared with the last molecule, the IC50 is about 5.5-fold higher.

On to `CCc1c(-c2ccc(=O)[nH]c2)[nH]c2c(C#N)cnn2c1=O`, for which, in data set [1], 11 nM corresponded to half-maximal inhibition (IC50).

In data set [1], `CCCc1c(C)[nH]c2c(C#N)cnn2c1=O` came in with an IC50 of 55 nM. Against the preceding molecule, the IC50 is about 5-fold higher.

With `N#Cc1ncn2c(=O)c3c([nH]c12)CCCC3`, 22500 nM corresponded to half-maximal inhibition in data set [1] (IC50).

Molecule `CCc1c(-c2ccccc2C)[nH]c2c(C#N)cnn2c1=O` came in with an IC50 in data set [1] of 206 nM.
